In brackets after ≈: the same amount, converted by molar mass. Blank lines part the entries; values can stand above or below the compound they belong to.
Experiments:
Assay in all cases: ≥ marks a high value that may be exact or a test limit, other limits are often not marked, values filed in µg/mL are converted to µM
Acinetobacter baumannii = tested on: Acinetobacter baumannii
[1] = tested on: Escherichia coli ATCC 25922
[2] = tested on: Klebsiella pneumoniae ATCC 700603
[3] = tested on: Pseudomonas aeruginosa ATCC 9027
[4] = tested on: Staphylococcus aureus ATCC 25923
[5] = tested on: Candida albicans ATCC 2002
[6] = tested on: Staphylococcus aureus ATCC 2592
[7] = tested on: Bacillus subtilis ATCC 6633
[8] = tested on: Micrococcus luteus ATCC 9341
Bacillus subtilis = tested on: Bacillus subtilis
Escherichia coli = tested on: Escherichia coli
[9] = tested on: Staphylococcus aureus ATCC 33591
Escherichia coli UB1005 = tested on: Escherichia coli UB1005
Pseudomonas aeruginosa = tested on: Pseudomonas aeruginosa
[10] = tested on: Salmonella enterica subsp. enterica serovar Typhimurium C77-31
[11] = tested on: Staphylococcus aureus ATCC 29213
Staphylococcus aureus = tested on: Staphylococcus aureus
[12] = tested on: Staphylococcus epidermidis ATCC 12228

MIC (Bacillus subtilis): 0.5 µM (≈ 3.17 µg/mL)
SMILES: CC[C@H](C)[C@@H]1NC(=O)[C@@H]2CSSC[C@@H]3NC(=O)[C@H](Cc4ccccc4)NC(=O)[C@H](CO)NC(=O)[C@H](CO)NC(=O)[C@H](C(C)C)NC(=O)[C@H](C(C)C)NC(=O)[C@@H]4CCCN4C(=O)[C@@H](NC(=O)[C@H](CCSC)NC(=O)[C@H](Cc4ccc(O)cc4)NC(=O)[C@H](CCC(=O)O)NC(=O)[C@H](CO)NC(=O)[C@H](CCCCN)NC(=O)[C@H](CC(N)=O)NC(=O)[C@H](CC(C)C)NC(=O)[C@@H](NC(=O)[C@H](CCC(=O)O)NC(=O)[C@H](CCCCN)NC(=O)[C@@H](NC(=O)[C@H](CCCCN)NC(=O)[C@H](CC(=O)O)NC(=O)[C@@H](NC(=O)[C@H](C)NC(=O)[C@H](CCC(N)=O)NC(=O)[C@H](CC(N)=O)NC(=O)[C@H](CC(C)C)NC(=O)[C@H](CCCCN)NC(=O)[C@H](CCCCN)NC(=O)[C@H](CCCCN)NC(=O)[C@H](CC(C)C)NC(=O)[C@H](CCCCN)NC(=O)[C@H](CCC(N)=O)NC(=O)CNC(=O)[C@@H](NC(=O)[C@@H](NC(=O)[C@H](CO)NC(=O)[C@@H](N)CCCCN)[C@@H](C)O)C(C)C)C(C)C)C(C)C)C(C)C)CSSC[C@H](NC(=O)[C@H](CCC(N)=O)NC(=O)CNC(=O)[C@H](CO)NC(=O)[C@H](CCCCN)NC(=O)CNC(=O)[C@H](CC(C)C)NC(=O)[C@H](CCCN=C(N)N)NC(=O)[C@H](C)NC(=O)[C@H](CSSC[C@@H](C(=O)O)NC1=O)NC(=O)[C@H](Cc1cnc[nH]1)NC(=O)[C@H](CCC(N)=O)NC(=O)[C@H](CCCCN)NC3=O)C(=O)N[C@@H](CC(=O)O)C(=O)N[C@@H](CC(C)C)C(=O)N[C@@H](CC(C)C)C(=O)N[C@@H](CCC(=O)O)C(=O)N2 [KSTVGQKLKKKLNQAVDKVKEVLNKSEYMCPVVSSFCKQHCARLGKSGQCDLLECIC]

MIC (Bacillus subtilis): 30 µM (≈ 56.5 µg/mL)
MIC (Escherichia coli): 25 µM (≈ 47.1 µg/mL)
SMILES: CC[C@H](C)[C@H](NC(=O)[C@H](CO)NC(=O)[C@H](C)NC(=O)[C@@H](NC(=O)[C@H](CCCCN)NC(=O)[C@H](CCCCN)NC(=O)[C@H](Cc1c[nH]c2ccccc12)NC(=O)[C@H](CC(N)=O)NC(=O)[C@@H](N)CO)[C@@H](C)CC)C(=O)NCC(=O)N[C@@H](CCCCN)C(=O)N[C@@H](CCC(=O)O)C(=O)N[C@H](C(=O)N[C@@H](CC(C)C)C(=O)N[C@@H](CCCCN)C(=O)N[C@@H](C)C(=O)N[C@@H](CC(C)C)C(N)=O)C(C)C [SNWKKIASIGKEVLKAL]

MIC (Acinetobacter baumannii): 4 µM (≈ 7.36 µg/mL)
MIC [1]: 4 µM (≈ 7.36 µg/mL)
MIC (Escherichia coli UB1005): 4 µM (≈ 7.36 µg/mL)
MIC (Escherichia coli): 2 µM (≈ 3.68 µg/mL)
MIC (Pseudomonas aeruginosa): 16 µM (≈ 29.4 µg/mL)
MIC [10]: 4 µM (≈ 7.36 µg/mL)
MIC [4]: 2 µM (≈ 3.68 µg/mL)
MIC [11]: 2 µM (≈ 3.68 µg/mL)
MIC (Staphylococcus aureus): 2 µM (≈ 3.68 µg/mL)
MIC [12]: 2 µM (≈ 3.68 µg/mL)
SMILES: CC(C)C[C@H](NC(=O)[C@H](CCCN=C(N)N)NC(=O)[C@H](Cc1c[nH]c2ccccc12)NC(=O)[C@H](CCCN=C(N)N)NC(=O)[C@@H](NC(=O)[C@H](CCCN=C(N)N)NC(=O)[C@H](Cc1c[nH]c2ccccc12)NC(=O)[C@H](CCCN=C(N)N)NC(=O)[C@H](CC(C)C)NC(=O)[C@H](CCCN=C(N)N)NC(=O)[C@@H](N)Cc1c[nH]c2ccccc12)[C@@H](C)O)C(=O)N[C@@H](CCCN=C(N)N)C(N)=O [WRLRWRTRWRLR]

MIC (Acinetobacter baumannii): 2.83 µM (≈ 4.96 µg/mL)
MIC [1]: 4 µM (≈ 7.02 µg/mL)
MIC (Escherichia coli UB1005): 2 µM (≈ 3.51 µg/mL)
MIC (Escherichia coli): 1 µM (≈ 1.75 µg/mL)
MIC (Pseudomonas aeruginosa): 4 µM (≈ 7.02 µg/mL)
MIC [10]: 2 µM (≈ 3.51 µg/mL)
MIC [4]: 2 µM (≈ 3.51 µg/mL)
MIC [11]: 1 µM (≈ 1.75 µg/mL)
MIC (Staphylococcus aureus): 2 µM (≈ 3.51 µg/mL)
MIC [12]: 2 µM (≈ 3.51 µg/mL)
SMILES: CC(C)[C@H](NC(=O)[C@H](CCCN=C(N)N)NC(=O)[C@H](Cc1c[nH]c2ccccc12)NC(=O)[C@H](CCCN=C(N)N)NC(=O)[C@@H](NC(=O)[C@H](CCCCN)NC(=O)[C@H](Cc1c[nH]c2ccccc12)NC(=O)[C@H](CCCN=C(N)N)NC(=O)[C@@H](NC(=O)[C@H](CCCN=C(N)N)NC(=O)[C@@H](N)Cc1c[nH]c2ccccc12)C(C)C)C(C)C)C(=O)N[C@@H](CCCCN)C(N)=O [WRVRWKVRWRVK]

More lines, now with the values behind:

SMILES: CC[C@H](C)[C@H](NC(=O)[C@H](C)N)C(=O)N[C@@H](CC(C)C)C(=O)N[C@@H](CCCN=C(N)N)C(=O)N[C@@H](CCCCN)C(=O)N[C@@H](C)C(=O)N[C@H](C(=O)N[C@@H](CCCN=C(N)N)C(=O)N[C@@H](CCCN=C(N)N)C(=O)N[C@@H](CC(C)C)C(=O)N[C@H](C(=O)N[C@@H](CCCCN)C(=O)N[C@@H](CC(C)C)C(=O)N[C@H](C(=O)N[C@H](C(N)=O)C(C)C)[C@@H](C)CC)C(C)C)[C@@H](C)O [AILRKATRRLVKLIV]
MIC (Acinetobacter baumannii): 6.25 µM (≈ 10.9 µg/mL)
MIC [1]: 20 µM (≈ 35 µg/mL)
MIC [2]: > 25 µM
MIC [3]: 20 µM (≈ 35 µg/mL)
MIC [4]: > 25 µM

SMILES: CC[C@H](C)[C@H](NC(=O)CNC(=O)CNC(=O)[C@H](C)NC(=O)[C@H](CCCCN)NC(=O)[C@H](C)N)C(=O)NCC(=O)NCC(=O)N[C@@H](Cc1cnc[nH]1)C(=O)N[C@H](C(=O)N[C@H](C(=O)NCC(=O)N[C@@H](CCC(N)=O)C(=O)N[C@H](C(=O)N[C@H](C(=O)NCC(=O)N[C@H](C(=O)N[C@@H](CCCN=C(N)N)C(=O)N[C@H](C(=O)N[C@@H](CCCN=C(N)N)C(=O)NCC(=O)N[C@@H](CC(C)C)C(=O)NCC(=O)NCC(=O)N[C@@H](CC(N)=O)C(=O)N[C@H](C(=O)O)C(C)C)[C@@H](C)CC)C(C)C)C(C)C)[C@@H](C)CC)[C@@H](C)CC)C(C)C [AKAGGIGGHVIGQIVGVRIRGLGGNV]
MIC [5]: 20.4 µM (≈ 50 µg/mL)
MIC [1]: 20.4 µM (≈ 50 µg/mL)
MIC [6]: 2.57 µM (≈ 6.3 µg/mL)

SMILES: CC[C@H](C)[C@H](NC(=O)[C@H](CCCN=C(N)N)NC(=O)[C@@H](NC(=O)[C@@H]1CCCN1C(=O)[C@@H](NC(=O)[C@@H](NC(=O)[C@H](CCC(N)=O)NC(=O)[C@@H]1CCCN1C(=O)[C@@H](NC(=O)[C@@H](NC(=O)[C@H](Cc1cnc[nH]1)NC(=O)[C@@H]1CCCN1C(=O)[C@@H]1CCCN1C(=O)[C@@H](NC(=O)CNC(=O)CNC(=O)[C@H](C)NC(=O)[C@H](CCCCN)NC(=O)[C@H](C)N)[C@@H](C)CC)C(C)C)[C@@H](C)CC)[C@@H](C)CC)C(C)C)C(C)C)C(=O)N[C@@H](CCCN=C(N)N)C(=O)N1CCC[C@H]1C(=O)N[C@@H](CC(C)C)C(=O)N[C@@H](CS)C(=O)NCC(=O)N[C@@H](CC(N)=O)C(=O)N[C@H](C(=O)O)C(C)C [AKAGGIPPHVIPQIVPVRIRPLCGNV]
MIC [5]: 9.25 µM (≈ 25 µg/mL)
MIC [1]: 18.5 µM (≈ 50 µg/mL)
MIC [6]: 4.66 µM (≈ 12.6 µg/mL)

SMILES: CC[C@H](C)[C@H](NC(=O)[C@H](CCCCN)NC(=O)[C@@H]1CCCN1C(=O)[C@H](CC(C)C)NC(=O)[C@@H](NC(=O)[C@H](CO)NC(=O)CNC(=O)[C@H](CC(C)C)NC(=O)[C@H](C)NC(=O)CNC(=O)[C@H](CC(C)C)NC(=O)[C@@H](NC(=O)[C@H](CC(C)C)NC(=O)[C@@H]1CCCN1C(=O)[C@H](Cc1ccccc1)NC(=O)[C@@H](N)Cc1ccccc1)C(C)C)[C@@H](C)CC)C(=O)N[C@@H](Cc1ccccc1)C(N)=O [FFPLVLGALGSILPKIF]
MIC [7]: 5.46 µM (≈ 9.99 µg/mL)
MIC [6]: 10.9 µM (≈ 20 µg/mL)

SMILES: CC[C@H](C)[C@@H]1NC(=O)[C@H](CO)NC(=O)[C@H](CCCCN)NC(=O)[C@H]([C@@H](C)O)NC(=O)[C@H](Cc2c[nH]c3ccccc23)NC(=O)[C@@H](NC(=O)CN)CSSC[C@@H](C(=O)N[C@@H](Cc2ccccc2)C(=O)O)NC(=O)[C@@H]2CCCN2C(=O)[C@H](CCCCN)NC(=O)[C@@H]2CCCN2C(=O)[C@@H]2CCCN2C1=O [GCWTKSIPPKPCF]
MIC [6]: 2.22 µM (≈ 3.25 µg/mL)

SMILES: CC[C@H](C)[C@H](N)C(=O)N[C@@H](CC(C)C)C(=O)N1CCC[C@H]1C(=O)N[C@@H](Cc1c[nH]c2ccccc12)C(=O)N[C@@H](CC(=O)O)C(=O)N[C@@H](Cc1c[nH]c2ccccc12)C(=O)N1CCC[C@H]1C(=O)N[C@@H](Cc1c[nH]c2ccccc12)C(=O)N[C@@H](Cc1c[nH]c2ccccc12)C(=O)N1CCC[C@H]1C(=O)N[C@@H](Cc1c[nH]c2ccccc12)C(=O)N[C@@H](CC(=O)O)C(=O)N[C@@H](CC(=O)O)C(N)=O [ILPWDWPWWPWDD]
MIC [8]: ≥ 100 µM

SMILES: CC[C@H](C)[C@H](N)C(=O)N[C@@H](CC(N)=O)C(=O)N[C@@H](Cc1c[nH]c2ccccc12)C(=O)N[C@@H](CO)C(=O)N[C@@H](CCCCN)C(=O)N[C@H](C(=O)N[C@@H](Cc1ccccc1)C(=O)N[C@@H](CCC(=O)O)C(=O)N[C@@H](CCCCN)C(=O)N[C@H](C(=O)N[C@@H](CCCCN)C(=O)N[C@@H](CC(N)=O)C(=O)N[C@@H](CC(C)C)C(=O)N[C@H](C(N)=O)C(C)C)C(C)C)[C@@H](C)CC [INWSKIFEKVKNLV]
MIC (Bacillus subtilis): 17 µM (≈ 29.2 µg/mL)
MIC (Escherichia coli): 12.5 µM (≈ 21.5 µg/mL)

SMILES: CC[C@H](C)[C@H](NC(=O)[C@@H](N)CCCCN)C(=O)N[C@@H](Cc1c[nH]c2ccccc12)C(=O)N[C@@H](Cc1ccccc1)C(=O)N[C@@H](CCC(N)=O)C(=O)N[C@@H](CC(N)=O)C(=O)N[C@@H](CCCCN)C(=O)N[C@@H](CCCCN)C(=O)N[C@@H](CCSC)C(=O)N[C@@H](CCCCN)C(=O)N[C@@H](Cc1c[nH]c2ccccc12)C(=O)N[C@@H](CCCCN)C(=O)N[C@@H](CCCCN)C(N)=O [KIWFQNKKMKWKK]
MIC [1]: 256 µM (≈ 459 µg/mL)
MIC [9]: ≥ 256 µM

Source: DBAASP
